Measurements reported in patent publication US9080214B2, “Genetic markers for efficacy of iloperidone in the treatment of psychotic symptoms” (Vanda Pharmaceuticals, Inc., priority 2007, dated 2015).

Test system: individuals diagnosed with schizophrenia
Test: Change in PANSS-P subscale by SNP genotype, patients on iloperidone 24 mg/day b.i.d. for 28 days (MMRM)
Assay type: in vivo, human
Source text: Earlier studies investigated an association between a polymorphism in the CNTF gene and iloperidone efficacy as well as associations between CYP2D6 and KCNQ1 genotypes and changes in QT interval following the administration of iloperidone. The present study involved the genotyping of DNA samples collected from 426 individuals diagnosed with schizophrenia in an attempt to identify additional SNPs associated with iloperidone efficacy. Each sample was genotyped at more than 500,000 SNP loci using the GeneChip® Human Mapping 500K Array Set (Affymetrix, Santa Clara, Calif.) and using assays developed in-house. Approximately half of the participants in the study were administered 24 mg/day of iloperidone, b.i.d., for 28 days. About 25% of the patients were administered ziprasidone. The remaining participants were administered a placebo. Three analyses of the PANSS-T were conducted. 1) A two-step approach where samples were randomly split into 2 groups of iloperidone-treated patients used to discover SNPs associated with changed in PANSS-T (Discovery phase) and a second group to confirm the 100 most significant SNPs (Confirmatory phase). 2) A one-step approach using the Last Observation Carried Forward (LOCF) PANSS-T data of all iloperidone-treated patients. For each SNP, the most parsimonious genetic model (e.g., homozygous for one allele v. all other genotypes [i.e., AA v. AB and BB], heterozygous v. homozygous [i.e., AB v. AA and BB]) was established with respect to iloperidone efficacy using a one-way analysis of variance (ANOVA). 3) A Mixed-effects Model Repeated Measures (MMRM) analysis was subsequently conducted using the best genetic model of each SNP in the MMRM model. MMRM analyses were also conducted with the PANSS subscales PANSS-P, PANSS-N, and PANSS-GP. The SNPs with a statistically significant association in all 3 analyses of PANSS-T, as well as the best of each analysis were considered significant findings and are listed below in Table 1. Results for each of these SNPs with the PANSS-T scales and with the three subscales PANSS-P, PANSS-N, and PANSS-GP are shown in Tables 2, 3, 4, and 5, respectively. […] In the present case of iloperidone efficacy, it is likely that different markers are more specifically associated with one or a few specific clinical symptoms, which is reflected in the improvement measured in separate subscales.

COc1cc(C(C)=O)ccc1OCCCN1CCC(c2noc3cc(F)ccc23)CC1 [iloperidone, 1-[4-[3-[4-(6-fluoro-1,2-benzisoxazol-3-yl)-1-piperidinyl]propoxy]-3-methoxyphenyl]ethanone]
mean of change in PANSS-P (SNP_A-1819750 (CREG1) genotype A_A): −5.31
mean of change in PANSS-P (SNP_A-1819750 (CREG1) genotype A_B*): −4.28
mean of change in PANSS-P (SNP_A-1819750 (CREG1) genotype B_B): −5.02
mean of change in PANSS-P (SNP_A-1819750 (CREG1) genotype nonAB**): −5.11
mean of change in PANSS-P (SNP_A-1860353 (RAP1B) genotype A_A**): −9.20
mean of change in PANSS-P (SNP_A-1860353 (RAP1B) genotype A_B): −4.42
mean of change in PANSS-P (SNP_A-1860353 (RAP1B) genotype B_B): −4.28
mean of change in PANSS-P (SNP_A-1860353 (RAP1B) genotype nonAA*): −4.30
mean of change in PANSS-P (SNP_A-1934663 genotype A_A): −5.65
mean of change in PANSS-P (SNP_A-1934663 genotype A_B): −5.78
mean of change in PANSS-P (SNP_A-1934663 genotype B_B*): −3.40
mean of change in PANSS-P (SNP_A-1934663 genotype nonBB**): −5.75
mean of change in PANSS-P (SNP_A-1973093 (KIAA0040) genotype A_A): −5.12
mean of change in PANSS-P (SNP_A-1973093 (KIAA0040) genotype A_B*): −2.58
mean of change in PANSS-P (SNP_A-1973093 (KIAA0040) genotype B_B): −5.64
mean of change in PANSS-P (SNP_A-1973093 (KIAA0040) genotype nonAB**): −5.54
mean of change in PANSS-P (SNP_A-1975928 (SLC2A9) genotype A_A): −4.60
mean of change in PANSS-P (SNP_A-1975928 (SLC2A9) genotype A_B): −4.79
mean of change in PANSS-P (SNP_A-1975928 (SLC2A9) genotype B_B*): 6.19
mean of change in PANSS-P (SNP_A-1975928 (SLC2A9) genotype nonBB**): −4.65
mean of change in PANSS-P (SNP_A-1987915 (GPR126) genotype A_A): −3.53
mean of change in PANSS-P (SNP_A-1987915 (GPR126) genotype A_B): −3.43
mean of change in PANSS-P (SNP_A-1987915 (GPR126) genotype B_B**): −5.95
mean of change in PANSS-P (SNP_A-1987915 (GPR126) genotype nonBB*): −3.45
mean of change in PANSS-P (SNP_A-2007721 (LOC58486) genotype A_A): −1.70
mean of change in PANSS-P (SNP_A-2007721 (LOC58486) genotype A_B**): −7.48
mean of change in PANSS-P (SNP_A-2007721 (LOC58486) genotype B_B): −3.42
mean of change in PANSS-P (SNP_A-2007721 (LOC58486) genotype nonAB*): −3.41
mean of change in PANSS-P (SNP_A-2044214 (HNT) genotype A_A): −5.77
mean of change in PANSS-P (SNP_A-2044214 (HNT) genotype A_B*): −2.08
mean of change in PANSS-P (SNP_A-2044214 (HNT) genotype B_B): −5.64
mean of change in PANSS-P (SNP_A-2044214 (HNT) genotype nonAB**): −5.73
mean of change in PANSS-P (SNP_A-2048427 (NPAS3) genotype A_A): −6.16
mean of change in PANSS-P (SNP_A-2048427 (NPAS3) genotype A_B): −6.26
mean of change in PANSS-P (SNP_A-2048427 (NPAS3) genotype B_B*): −3.61
mean of change in PANSS-P (SNP_A-2048427 (NPAS3) genotype nonBB**): −6.24
mean of change in PANSS-P (SNP_A-2070454 (NKX2-5) genotype A_A): −4.04
mean of change in PANSS-P (SNP_A-2070454 (NKX2-5) genotype A_B): −3.89
mean of change in PANSS-P (SNP_A-2070454 (NKX2-5) genotype B_B**): −5.75
mean of change in PANSS-P (SNP_A-2070454 (NKX2-5) genotype nonBB*): −3.94
mean of change in PANSS-P (SNP_A-2076797 (NUDT9P1) genotype A_A): −2.57
mean of change in PANSS-P (SNP_A-2076797 (NUDT9P1) genotype A_B**): −6.55
mean of change in PANSS-P (SNP_A-2076797 (NUDT9P1) genotype B_B): −2.27
mean of change in PANSS-P (SNP_A-2076797 (NUDT9P1) genotype nonAB*): −2.42
mean of change in PANSS-P (SNP_A-2103099 (HTR1A) genotype A_A): −6.05
mean of change in PANSS-P (SNP_A-2103099 (HTR1A) genotype A_B*): −2.88
mean of change in PANSS-P (SNP_A-2103099 (HTR1A) genotype B_B): −5.88
mean of change in PANSS-P (SNP_A-2103099 (HTR1A) genotype nonAB**): −5.95
mean of change in PANSS-P (SNP_A-2120958 genotype A_A): −4.97
mean of change in PANSS-P (SNP_A-2120958 genotype A_B): −4.92
mean of change in PANSS-P (SNP_A-2120958 genotype B_B*): 1.49
mean of change in PANSS-P (SNP_A-2120958 genotype nonBB**): −4.95
mean of change in PANSS-P (SNP_A-2170121 (C6) genotype A_A): −3.49
mean of change in PANSS-P (SNP_A-2170121 (C6) genotype A_B**): −6.98
mean of change in PANSS-P (SNP_A-2170121 (C6) genotype B_B): −4.26
mean of change in PANSS-P (SNP_A-2170121 (C6) genotype nonAB*): −3.56
mean of change in PANSS-P (SNP_A-2274533 (LZTS1) genotype A_A**): −5.34
mean of change in PANSS-P (SNP_A-2274533 (LZTS1) genotype A_B): −2.64
mean of change in PANSS-P (SNP_A-2274533 (LZTS1) genotype B_B): −2.63
mean of change in PANSS-P (SNP_A-2274533 (LZTS1) genotype nonAA*): −2.63
mean of change in PANSS-P (SNP_A-2283283 (XKR4) genotype A_A*): −1.85
mean of change in PANSS-P (SNP_A-2283283 (XKR4) genotype A_B): −4.92
mean of change in PANSS-P (SNP_A-2283283 (XKR4) genotype B_B): −5.41
mean of change in PANSS-P (SNP_A-2283283 (XKR4) genotype nonAA**): −5.12
mean of change in PANSS-P (SNP_A-2284243 (GRIA4) genotype A_A): −5.09
mean of change in PANSS-P (SNP_A-2284243 (GRIA4) genotype A_B): −5.09
mean of change in PANSS-P (SNP_A-2284243 (GRIA4) genotype B_B*): −2.11
mean of change in PANSS-P (SNP_A-2284243 (GRIA4) genotype nonBB**): −5.09
mean of change in PANSS-P (SNP_A-4204396 (CDH13) genotype A_A): −4.76
mean of change in PANSS-P (SNP_A-4204396 (CDH13) genotype A_B): −4.99
mean of change in PANSS-P (SNP_A-4204396 (CDH13) genotype B_B*): 1.63
mean of change in PANSS-P (SNP_A-4204396 (CDH13) genotype nonBB**): −4.85
mean of change in PANSS-P (SNP_A-4212785 (PPP1R3B) genotype A_A*): 4.95
mean of change in PANSS-P (SNP_A-4212785 (PPP1R3B) genotype A_B): −4.78
mean of change in PANSS-P (SNP_A-4212785 (PPP1R3B) genotype B_B): −4.70
mean of change in PANSS-P (SNP_A-4212785 (PPP1R3B) genotype nonAA**): −4.73
mean of change in PANSS-P (SNP_A-4230979 (ASB3) genotype A_A): −2.80
mean of change in PANSS-P (SNP_A-4230979 (ASB3) genotype A_B): −3.63
mean of change in PANSS-P (SNP_A-4230979 (ASB3) genotype B_B**): −5.84
mean of change in PANSS-P (SNP_A-4230979 (ASB3) genotype nonBB*): −3.45
mean of change in PANSS-P (SNP_A-4256833 (MLCK) genotype A_A): −4.59
mean of change in PANSS-P (SNP_A-4256833 (MLCK) genotype A_B*): −2.78
mean of change in PANSS-P (SNP_A-4256833 (MLCK) genotype B_B): −5.14
mean of change in PANSS-P (SNP_A-4256833 (MLCK) genotype nonAB**): −5.10
mean of change in PANSS-P (SNP_A-4258279 (RRM1) genotype A_A): −5.01
mean of change in PANSS-P (SNP_A-4258279 (RRM1) genotype A_B*): −0.85
mean of change in PANSS-P (SNP_A-4258279 (RRM1) genotype B_B): −5.25
mean of change in PANSS-P (SNP_A-4258279 (RRM1) genotype nonAB**): −5.24
